Entries after “also recorded” stand apart in the source; their conditions may differ.
What was measured:
[1] = test system: SHSY-5Y dopaminergic cells; assay: MPP+ induced cell death, MTT assay; assay type: cell-based, human
Method: (§1) MPP+, eradicates approximately 75% of the cells in 24 hours. […] Naive Neuro2A cells (FIG. 2A) or SH-SY5Y neuroblastoma cells FIG. 2B,C) were cultured in RPMI 1640, 10% fetal bovine serum at 37° C. Cells were pretreated with compound 3 for 12-24 h. Subsequent change of culture medium with addition of 0, 1, 2 and 4 mM MPP+ induced cell death. MTT assays determined the relative number of surviving cells FIG. 2D).
Such assays were performed, for instance, by adding compound 46 (12.5 μM) to human origin SHSY-5Y dopaminergic cells in which death was induced by the mitochondria complex I inhibitor MPP+ (1-methyl-4-phenylpyridinium), the active metabolite of MPTP (1-methyl-4-phenyl-1,2,3,6-tetrahydropyridine). […] Most of the MPP+-treated cells receiving vehicle died, while the few surviving cells remained attached to the plate but were rounded and had lost all projections. These morphological changes indicated impaired neuronal function. On the contrary, cells treated with compound 46 appeared healthy, flattened, well-attached, and their projections remained intact.
(§2) We examined the neuroprotective capability of Nurr1:RXRα heterodimer activation in SHSY-5Y cells where death was induced by either the oxidative stress related H2O2 or the mitochondria complex I inhibitor MPP+ (1-methyl-4-phenylpyridinium) (FIG. 72B). […] The protection conferred by compound 3 was Nurr1-dependent, since it was abrogated by knocking-down endogenous Nurr1 mRNA (FIGS. 1E and 72D). The neuroprotective effects of compound 3 extend to damage induced by the PD-associated mutation G2019S in the Leucine-Rich Repeat Kinase 2 (LRRK2) gene, the most common genetic defect associated with clinical PD (Tofaris et al. J. Neurosci. 26:3942-3950, 2006). Rat cortical neurons, co-transfected with CMV-GFP for identification, and CMVLRRK2-G2019S cDNAs show increased apoptosis as assessed by DAPI staining, compared to control neurons co-transfected with a LRRK2 wt cDNA.

SHSY-5Y cells = assay: H2O2 induced cell death, MTT assay; assay type: cell-based, human; conditions: 12.5 μM, varying concentrations of H2O2
Excerpt: FIGS. 72A-72R show the ability of compound 3 to induce the expression of genes involved in dopamine biosynthesis as well as the neuroprotective effects of compound 3 in cell lines and patient iPCs-derived dopaminergic neurons. […] FIGS. 72F, 72G, 72H, and 72I show representative confocal microscopy images of the compound 3-treated primary rat cortical neurons. […] FIG. 72M-72R show the effects of compound 3 on PD patient iPS cell-derived dopaminergic neurons with the LRRK2-G2019S mutation or corrected mutation (GC). Compound 3 treatment rescues neurite length (M, expressed in […]), number (N) and branching (O) phenotypes. Representative images show staining with TuJ, TH and DAPI (FIGS. 72P, 72Q, and 72R).
as §2, with “The neuroprotective effects of compound 3 extend to damage induced by the PD-associated mutation G2019S in the Leucine-Rich Repeat Kinase 2 (LRRK2) gene, the most common genetic defect associated with clinical PD (Tofaris et al. J. Neurosci. 26:3942-3950, 2006).” left out

Neuro2A cells = assay: MPP+ induced toxicity in Neuro2A cells; assay type: cell-based
Method: as §1

striatal DA levels = assay: Striatal dopamine and metabolite levels by HPLC-ECD in wild type mice; assay type: in vivo, mouse
Method: 4 hours after dosing, animals were killed by cervical dislocation, brains were removed, and the striata were dissected on ice. The samples were immediately frozen and stored at −80° C. until use. The tissues were processed for the analysis by high performance liquid chromatography (HPLC) with an electrochemical detector (ECD) (Emmanouil et al., 2006). The dissected tissues were weighed, homogenized, and deproteinized in 0.2N perchloric acid solution containing 7.9 mM Na2S2O5 and 1.3 mM Na2EDTA. The homogenate was centrifuged at 37,000×g for 30 minutes, and the supernatant was stored at −80° C. until assayed. A reverse-phase ion-pair chromatography was used in all analyses, and the mobile phase consisted of an acetonitrile-50 mM phosphate buffer at pH 3.0, containing 5-octylsulfate sodium salt (300 mg/L) as the ion-pair reagent and (20 mg/L) Na2EDTA. Reference standards were prepared in 0.2 N perchloric acid solution containing 7.9 mM Na2S2O5 and 1.3 mM Na2EDTA. Samples were quantified by comparison of the areas under the peaks with those of reference standards using HPLC software (Chromatography Station for Windows™, Watrex International Inc., San Francisco, Calif.). […]

noradrenaline levels = assay: Striatal noradrenaline levels by HPLC-ECD; assay type: in vivo, mouse; conditions: 4 hours
Method: 4 hours after dosing animals were killed by cervical dislocation, brains were removed, and the striata were dissected on ice. The samples were immediately frozen and stored at −80° C. until use. The tissues were processed for the analysis by high performance liquid chromatography (HPLC) with an electrochemical detector (ECD) (Emmanouil et al., 2006). The dissected tissues were weighed, homogenized, and deproteinized in 0.2 N perchloric acid solution containing 7.9 mM Na2S2O5 and 1.3 mM Na2EDTA. The homogenate was centrifuged at 37,000×g for 30 minutes, and the supernatant was stored at −80° C. until assayed. A reverse-phase ion-pair chromatography was used in all analyses, and the mobile phase consisted of an acetonitrile-50 mM phosphate buffer at pH 3.0, containing 5-octylsulfate sodium salt (300 mg/L) as the ion-pair reagent and (20 mg/L) Na2EDTA. Reference standards were prepared in 0.2 N perchloric acid solution containing 7.9 mM Na2S2O5 and 1.3 mM Na2EDTA. Samples were quantified by comparison of the areas under the peaks with those of reference standards using HPLC software (Chromatography Station for Windows™, Watrex International Inc., San Francisco, Calif.) (FIG. 3D).

[2] = test system: wild type 129/SV mice treated with MPTP; assay: Neuroprotection against MPTP in wild type 129/SV mice; assay type: in vivo, mouse
Method: (§3) 20 mg/kg MPTP injections were administered 4 times at the zero day of treatment, spaced 2 hours apart. 7 days after the MPTP injections there was approximately an 80% reduction in striatal projections and 40%-50% dopaminergic neuron death in the SN.

[3] = test system: Nurr1 heterozygote 129/SV mice treated with MPTP; assay: Neuroprotection against MPTP in Nurr1 heterozygote 129/SV mice; assay type: in vivo, mouse; conditions: Nurr1 heterozygote (Nurr1+/−) 129/SV mice
Method: as §3

SMILES: C=CCc1c(N(C)c2ccc(C(=O)O)cc2)nc(-c2ccccc2)nc1C(F)(F)F [Example 3, 4-((5-allyl-2-phenyl-6-(trifluoromethyl)pyrimidin-4-yl)(methyl)amino)benzoic acid]
- cell survival against MPP+ ([1]; 12.5 μM, varying concentrations of MPP+): significantly increased cell survival
- number of surviving cells after MPP+ ([1]; pretreated 12-24 h, MPP+ 24 hours, MTT): approximately doubles
- cell survival against H2O2 (SHSY-5Y cells): significantly increased cell survival
- protection from MPP+ induced toxicity (Neuro2A cells): protects
- increase of striatal DA levels and dopamine metabolite (DOPAC and HVA) levels (striatal DA levels; wild type C57/BL6 mice, single IP 20 mg/kg, 4 hours after dosing): 33%
- striatal DA and DA metabolite levels (striatal DA levels; wt mice, single IP 10 mg/kg, 4 hours): increased
- noradrenaline levels (noradrenaline levels; IP 10 mg/kg): remained unaffected
- noradrenaline levels (noradrenaline levels; wild type C57/BL6 mice, single IP 20 mg/kg): did not increase
- neuroprotection against MPTP toxicity ([2]; 129sv wt mice): equally effective
- increase in number of surviving neuronal bodies ([2]; wild type 129/SV, MPTP, IP 10 mg/kg every 12 hours for 8 days): 33.5%
- neuroprotection against MPTP toxicity (surviving neuronal bodies) [3]: did not lead to a statistically significant increase; also recorded: abolished

— patent US10946019B2, “Nurr1:RXR activating compounds for simultaneous treatment of symptoms and pathology of Parkinson's disease” (priority 2015, dated 2021)
